Source: patent publication US11802120B2, “Fused cyclic urea derivatives as CRHR2 antagonist” (RaQualia Pharma Inc., priority 2018, dated 2023)

What follows are compounds tested against T1, human CRHR2-alpha (Homo sapiens, UniProt Q13324) (assay: cAMP functional assay for human CRHR2 (LANCE Ultra cAMP, TR-FRET)). Details: CHO-K1 cells expressing human CRHR2-alpha, agonist human urocortin2 at EC80, cAMP; read-out: IC50 against CRHR2.
T1 sequence (Q13324 1-411): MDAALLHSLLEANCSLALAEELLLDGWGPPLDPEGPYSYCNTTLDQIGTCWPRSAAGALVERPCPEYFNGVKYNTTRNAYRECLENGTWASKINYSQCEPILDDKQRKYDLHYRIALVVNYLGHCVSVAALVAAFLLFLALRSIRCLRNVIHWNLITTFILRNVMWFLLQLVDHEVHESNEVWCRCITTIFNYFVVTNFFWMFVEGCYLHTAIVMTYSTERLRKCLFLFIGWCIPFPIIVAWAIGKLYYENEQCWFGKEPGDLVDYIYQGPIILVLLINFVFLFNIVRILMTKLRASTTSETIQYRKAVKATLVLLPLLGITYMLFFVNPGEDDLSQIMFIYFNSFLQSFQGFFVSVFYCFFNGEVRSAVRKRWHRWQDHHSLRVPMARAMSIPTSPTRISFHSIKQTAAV
Format: cell-based
In short: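 IC50 values derive from percent inhibition of EC80 agonist-stimulated cAMP in CHO-K1 transfectants, with 0.5 mM IBMX present; the CRHR2 line was stimulated by human urocortin2 and the CRHR1 line by CRF.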

Row | IC50 [nM] | Structure (SMILES)
1 | < 300 | Cc1ncc(Cl)cc1C(=O)N[C@H]1CC[C@H](Cn2c(=O)n(-c3ccc(NC4CC(F)(F)C4)nc3)c3ccccc32)CC1 [Example 108, 5-chloro-N-((1r,4r)-4-((3-(6-((3,3-difluorocyclobutyl)amino)pyridin-3-yl)-2-oxo-2,3-dihydro-1H-benzo[d]imidazol-1-yl)methyl)cyclohexyl)-2-methylnicotinamide]
2 | < 300 | CNc1ncc(-n2c(=O)n(C[C@H]3CC[C@H](NC(=O)c4cc(Cl)cnc4C)CC3)c3ccccc32)cc1C [Example 133, 5-chloro-2-methyl-N-((1r,4r)-4-((3-(5-methyl-6-(methyl-amino)pyridin-3-yl)-2-oxo-2,3-dihydro-1H-benzo[d]imidazol-1-yl)methyl)cyclohexyl) nicotinamide]
3 | < 300 | Cc1ncc(Cl)cc1C(=O)N[C@H]1CC[C@H](Cn2c(=O)n(-c3cnc4c(c3)OCC(=O)N4)c3ccccc32)CC1 [Example 224, 5-chloro-2-methyl-N-((1r,4r)-4-((2-oxo-3-(3-oxo-3,4-dihydro-2H-pyrido[3,2-b][1,4]oxazin-7-yl)-2,3-dihydro-1H-benzo[d]imidazol-1-yl)methyl)cyclohexyl)nicotinamide]
4 | < 300 | C[C@H](O)COc1ccc(-n2c(=O)n(C[C@H]3CC[C@H](NC(=O)c4cc(Cl)cnc4C(F)(F)F)CC3)c3ccccc32)cn1 [Example 467, 5-chloro-N-((1S,4r)-4-((3-(6-((S)-2-hydroxypropoxy)pyridin-3-yl)-2-oxo-2,3-dihydro-1H-benzo[d]imidazol-1-yl)methyl)cyclohexyl)-2-(trifluoromethyl)nicotinamide]
5 | < 300 | Cc1ncc(Cl)cc1C(=O)N[C@H]1CC[C@H](Cn2c(=O)n(-c3ccc4c(N)noc4c3)c3ccccc32)CC1 [Example 198, N-((1r,4r)-4-((3-(3-aminobenzo[d]isoxazol-6-yl)-2-oxo-2,3-dihydro-1H-benzo[d]imidazol-1-yl)methyl)cyclohexyl)-5-chloro-2-methylnicotinamide]
6 | < 300 | COCCOc1ccc(-n2c(=O)n(C[C@H]3CC[C@H](NC(=O)c4cc(Cl)cnc4C(F)F)CC3)c3ccccc32)cn1 [Example 477, 5-chloro-2-(difluoromethyl)-N-((1r,4r)-4-((3-(6-(2-methoxy-ethoxy)pyridin-3-yl)-2-oxo-2,3-dihydro-1H-benzo[d]imidazol-1-yl)methyl)cyclohexyl) nicotinamide]
7 | < 300 | CNc1ccc(-n2c(=O)n(C[C@H]3CC[C@H](NC(=O)c4cc(Cl)cnc4C(F)F)CC3)c3ccc(F)cc32)cn1 [Example 626, 5-chloro-2-(difluoromethyl)-N-((1r,4r)-4-((5-fluoro-3-(6-(methylamino)pyridin-3-yl)-2-oxo-2,3-dihydro-1H-benzo [d]imidazol-1-yl)methyl)cyclohexyl)nicotinamide]
8 | < 300 | Cc1ncc(Cl)cc1C(=O)N[C@H]1CC[C@H](Cn2c(=O)n(-c3cc(Br)ccc3C#N)c3ccccc32)CC1 [Example 307, N-((1r,4r)-4-((3-(5-bromo-2-cyanophenyl)-2-oxo-2,3-dihydro-1H-benzo[d]imidazol-1-yl)methyl)cyclohexyl)-5-chloro-2-methylnicotinamide]
9 | < 300 | O=C(N[C@H]1CC[C@H](Cn2c(=O)n(-c3ccc(OCCO)nc3)c3ccccc32)CC1)c1cc(Cl)cnc1C(F)(F)F [Example 301, 5-chloro-N-((1r,4r)-4-((3-(6-(2-hydroxyethoxy)pyridin-3-yl)-2-oxo-2,3-dihydro-1H-benzo[d]imidazol-1-yl)methyl)cyclohexyl)-2-(trifluoromethyl)nicotinamide]
10 | < 300 | Cc1ncc(Cl)cc1C(=O)N[C@H]1CC[C@H](Cn2c(=O)n(-c3ccc4ncnn4c3)c3ccccc32)CC1 [Example 278, N-((1r,4r)-4-((3-([1,2,4]triazolo [1,5-a]pyridin-6-yl)-2-oxo-2,3-dihydro-1H-benzo[d]imidazol-1-yl)methyl)cyclohexyl)-5-chloro-2-methylnicotinamide]
11 | < 300 | Cc1ncc(Cl)cc1C(=O)N[C@H]1CC[C@H](Cn2c(=O)n(-c3ccc(OCC(F)F)nc3)c3ccccc32)CC1 [Example 35, 5-chloro-N-((1r,4r)-4-((3-(6-(2,2-difluoroethoxy)pyridin-3-yl)-2-oxo-2,3-dihydro-1H-benzo[d]imidazol-1-yl)methyl)cyclohexyl)-2-methylnicotinamide]
12 | < 300 | Cc1ncc(Cl)cc1C(=O)N[C@H]1CC[C@H](Cn2c(=O)n(-c3cccc4ncncc34)c3ccccc32)CC1 [Example 187, 5-chloro-2-methyl-N-((1r,4r)-4-((2-oxo-3-(quinazolin-5-yl)-2,3-dihydro-1H-benzo[d]imidazol-1-yl)methyl)cyclo-hexyl)nicotinamide]
13 | < 300 | Cc1ncc(Cl)cc1C(=O)N[C@H]1CC[C@H](Cn2c(=O)n(-c3ccc(C4CC4)nc3)c3ccccc32)CC1 [Example 86, 5-chloro-N-((1r,4r)-4-((3-(6-cyclopropylpyridin-3-yl)-2-oxo-2,3-dihydro-1H-benzo[d]imidazol-1-yl)methyl)cyclohexyl)-2-methylnicotinamide]
14 | < 300 | Cc1ncc(Cl)cc1C(=O)N[C@H]1CC[C@H](Cn2c(=O)n(CC(=O)c3ccccc3)c3ccccc32)CC1 [Example 5, 5-chloro-2-methyl-N-((1r,4r)-4-((2-oxo-3-(2-oxo-2-phenylethyl)-2,3-dihydro-1H-benzo[d]imidazol-1-yl)methyl)cyclohexyl)nicotinamide]
15 | < 300 | O=C(N[C@H]1CC[C@H](Cn2c(=O)n(-c3ccc(Cl)cc3Cl)c3ncccc32)CC1)c1cc(Cl)cnc1C(F)F [Example 459, 5-chloro-N-((1r,4r)-4-((3-(2,4-dichlorophenyl)-2-oxo-2,3-dihydro-1H-imidazo[4,5-b]pyridin-1-yl)methyl)cyclo-hexyl)-2-(difluoromethyl) nicotinamide]
16 | < 300 | Cc1ncc(Cl)cc1C(=O)N[C@H]1CC[C@H](Cn2c(=O)n(-c3cccc(N4CCNC4=O)n3)c3ccccc32)CC1 [Example 772, 5-chloro-2-methyl-N-((1r,4r)-4-((2-oxo-3-(6-(2-oxo-imidazolidin-1-yl)pyridin-2-yl)-2,3-dihydro-1H-benzo [d]imidazol-1-yl)methyl)cyclohexyl)nicotinamide]
17 | < 300 | Cc1ncc(Cl)cc1C(=O)N[C@H]1CC[C@H](Cn2c(=O)n(-c3ccc4c(c3)nnn4CCO)c3ccccc32)CC1 [Example 276, 5-chloro-N-((1r,4r)-4-((3-(1-(2-hydroxyethyl)-1H-benzo[d][1,2,3]triazol-5-yl)-2-oxo-2,3-dihydro-1H-benzo[d]imidazol-1-yl)methyl)cyclohexyl)-2-methylnicotinamide]
18 | < 300 | Cc1ncc(Cl)cc1C(=O)N[C@H]1CC[C@H](Cn2c(=O)n(-c3cnc4ccccc4c3)c3ccccc32)CC1 [Example 346, 5-chloro-2-methyl-N-((1r,4r)-4-((2-oxo-3-(quinolin-3-yl)-2,3-dihydro-1H-benzo[d]imidazol-1-yl)methyl)cyclo-hexyl)nicotinamide]
19 | < 300 | O=C(N[C@H]1CC[C@H](Cn2c(=O)n(-c3ccc(OC4COC4)nc3)c3ccccc32)CC1)c1cc(Cl)cnc1C(F)F [Example 478, 5-chloro-2-(difluoromethyl)-N-((1r,4r)-4-((3-(6-(oxetan-3-yloxy)pyridin-3-yl)-2-oxo-2,3-dihydro-1H-benzo[d]imidazol-1-yl)methyl)cyclohexyl)nicotinamide]
20 | < 300 | N#Cc1cccnc1-n1c(=O)n(C[C@H]2CC[C@H](NC(=O)c3cc(Cl)cnc3C(F)(F)F)CC2)c2ccccc21 [Example 312, 5-chloro-N-((1r,4r)-4-((3-(3-cyanopyridin-2-yl)-2-oxo-2,3-dihydro-1H-benzo[d]imidazol-1-yl)methyl)cyclo-hexyl)-2-(trifluoromethyl) nicotinamide]
21 | < 300 | Cc1ncc(Cl)cc1C(=O)N[C@H]1CC[C@H](Cn2c(=O)n(Cc3ccccc3)c3ncccc32)CC1 [Example 448, N-((1r,4r)-4-((3-benzyl-2-oxo-2,3-dihydro-1H-imidazo [4,5-b]pyridin-1-yl)methyl)cyclohexyl)-5-chloro-2-methylnicotinamide]
22 | < 300 | CN(CCO)c1ccc(-n2c(=O)n(C[C@H]3CC[C@H](NC(=O)c4cc(Cl)cnc4C(F)F)CC3)c3ccccc32)cn1 [Example 382, 5-chloro-2-(difluoromethyl)-N-((1r,4r)-4-((3-(6-((2-hydroxyethyl)(methyl)amino)pyridin-3-yl)-2-oxo-2,3-dihydro-1H-benzo[d]imidazol-1-yl)methyl)cyclohexyl)nicotinamide]
23 | < 300 | O=C(N[C@H]1CC[C@H](Cn2c(=O)n(-c3cnc(OCCO)cn3)c3ccccc32)CC1)c1cc(Cl)cnc1C(F)F [Example 563, 5-chloro-2-(difluoromethyl)-N-((1r,4r)-4-((3-(5-(2-hydroxyethoxy)pyrazin-2-yl)-2-oxo-2,3-dihydro-1H-benzo[d]imidazol-1-yl)methyl)cyclohexyl)nicotinamide]
24 | < 300 | N#Cc1ccccc1-n1c(=O)n(C[C@H]2CC[C@H](NC(=O)c3cc(Cl)cnc3C(F)F)CC2)c2ccccc21 [Example 499, 5-chloro-N-((1r,4r)-4-((3-(2-cyanophenyl)-2-oxo-2,3-dihydro-1H-benzo[d]imidazol-1-yl)methyl)cyclo-hexyl)-2-(difluoromethyl) nicotinamide]
